Common to all, as to assay type: in vivo, C57BL/6 mice
The subject of test [1] is muscle atrophy mouse model. Nature of the test: Cross-sectional area of muscle fibers (H&E staining, image J) in muscle atrophy mouse model. The settings on record: 370 mg/kg oral, 14 days. The procedure:
(§1) An animal experiment was conducted to confirm whether an Aster spathulifolius extract improved muscle atrophy in a muscle atrophy mouse model. Five-week-old male C57BL/6 mice were adapted to an animal laboratory environment for one week, and then divided into five groups according to an experimental condition, and immobilization of the legs to induce muscle atrophy and oral administration of samples were performed for two weeks. Specifically, experimental groups were divided into an untreated control group (normal group, Cont), a muscle atrophy induced group (induction group, IM), a positive control group (HMB administered group, HMB 370) induced with muscle atrophy and administered with beta-hydroxy beta-methylbutyrate (HMB) (370 mg/kg), a group (Aster spathulifolius low-dose administered group, AS 100) induced with muscle atrophy and administered with a low dose (100 mg/kg) of Aster spathulifolius extract, and a group (Aster spathulifolius high-dose administered group, AS 200) induced with muscle atrophy and administered with a high dose (200 mg/kg) of Aster spathulifolius extract. Immobilization of the legs was performed by applying a fixing tool manufactured by using a 1.5 ml microfuge tube, clips, and a Velcro tape as shown in References (Disease models & mechanisms, 8(9), 1059-1069, 2015) to one hind leg of the mouse. All samples were dissolved in 0.5% carboxymethylcellulose (CMC) and orally administered once a day for 14 days from a day of application of leg fixation. After 2 weeks of leg fixation and oral administration of the sample, the gastrocnemius and the quadriceps of one hind leg were extracted, and the weights thereof were measured, normalized in proportion to the body weight, and then compared and shown in FIG. 1. As a result, compared to the normal group (Cont), the induction group (IM) induced muscle atrophy, resulting in a weight loss of about 40% in the gastrocnemius and about 33% in the quadriceps in proportion to the body weight. In the HMB-administered group (HMB 370), as the positive control group, the gastrocnemius decreased by about 24% and the quadriceps decreased by about 17%, showing about 16% and 16% of a muscle atrophy protective ability, respectively. On the other hand, in the low-dose group of Aster spathulifolius (AS 100), the gastrocnemius decreased by about 27% and the quadriceps decreased by about 22%. In the high-dose group of Aster spathulifolius (AS 200), the gastrocnemius decreased by about 25% and the quadriceps decreased by about 18%.
Histological analysis was conducted to confirm whether an Aster spathulifolius extract improved the reduction in cross-sectional area of muscle fibers in a muscle atrophy mouse model. The gastrocnemius and quadriceps tissues extracted in Example 2 above were fixed with 4% paraformaldehyde and then subjected to hematoxylin and eosin staining (H&E staining), and thereafter, the cross-sectional area of the dyed muscle fibers was quantified through image J software, and the results were shown in FIGS. 2 and 3.

For another test, the system named is p-mTOR. Description: Western blot protein expression in gastrocnemius of muscle atrophy mouse model. Particulars: 370 mg/kg oral, 14 days. The procedure: An animal experiment was conducted to confirm whether an Aster spathulifolius extract improved muscle atrophy in a muscle atrophy mouse model. Five-week-old male C57BL/6 mice were adapted to an animal laboratory environment for one week, and then divided into five groups according to an experimental condition, and immobilization of the legs to induce muscle atrophy and oral administration of samples were performed for two weeks. Specifically, experimental groups were divided into an untreated control group (normal group, Cont), a muscle atrophy induced group (induction group, IM), a positive control group (HMB administered group, HMB 370) induced with muscle atrophy and administered with beta-hydroxy beta-methylbutyrate (HMB) (370 mg/kg), a group (Aster spathulifolius low-dose administered group, AS 100) induced with muscle atrophy and administered with a low dose (100 mg/kg) of Aster spathulifolius extract, and a group (Aster spathulifolius high-dose administered group, AS 200) induced with muscle atrophy and administered with a high dose (200 mg/kg) of Aster spathulifolius extract. […] After 2 weeks of leg fixation and oral administration of the sample, the gastrocnemius and the quadriceps of one hind leg were extracted, and the weights thereof were measured, normalized in proportion to the body weight, and then compared and shown in FIG. 1. […]

The subject of another test is murf-1. Nature of the test: qRT-PCR mRNA expression in gastrocnemius of muscle atrophy mouse model. The settings on record: 370 mg/kg oral, 14 days, induction group about 3 times. How it is done:
(§2) An animal experiment was conducted to confirm whether an Aster spathulifolius extract improved muscle atrophy in a muscle atrophy mouse model. Five-week-old male C57BL/6 mice were adapted to an animal laboratory environment for one week, and then divided into five groups according to an experimental condition, and immobilization of the legs to induce muscle atrophy and oral administration of samples were performed for two weeks. […] After 2 weeks of leg fixation and oral administration of the sample, the gastrocnemius and the quadriceps of one hind leg were extracted, and the weights thereof were measured, normalized in proportion to the body weight, and then compared and shown in FIG. 1. […]
(§3) To confirm whether the Aster spathulifolius extract improved the mRNA expression levels of muscle atrophy-related factors, muscle ring finger-1 (MuRF-1) and Atrogin-1, in a muscle atrophy mouse model, quantitative real-time PCR (qRT-PCR) was performed. […]

Another test has as its system atrogin-1. The test is described as above. The settings on record: 370 mg/kg oral, 14 days, induction group about three times. How it is done:
as §2, §3

Test [2] relates to muscle atrophy mouse model. Description: Muscle tissue weight in leg-immobilization muscle atrophy mouse model. How it is done: as §1

For `CC(C)(O)CC(=O)O` [HMB, beta-hydroxy beta-methylbutyrate], in test [1], the “protective ability against the cross-sectional area of muscle fibers, gastrocnemius” value came to 17% and the “protective ability against the cross-sectional area of muscle fibers, quadriceps” value stood at 19%. Further, the “reduction in muscle fiber size (H&E staining)” value in test [1] (both muscle tissues) was “the reduction in muscle fiber size was alleviated”. For the same molecule, the “decrease of cross-sectional area of muscle fiber vs normal group, quadriceps” value in test [1] (induction group about 47%) is “about 28%”. In addition, the “decrease of cross-sectional area of muscle fiber vs normal group, gastrocnemius” value in test [1] (induction group about 50%) is “about 33%”. For the same molecule, the p-mTOR protein expression result in the test on p-mTOR is reported as “large increase”. Also, the “murf-1 gene expression relative to normal group” value in the test with murf-1 is “about 1.7 times”. Also, in the test with atrogin-1, the “atrogin-1 gene expression relative to normal group” value is listed as “about 1.3 times”. Besides, the “quadriceps weight decrease in proportion to body weight vs normal group” value in test [2] (370 mg/kg oral once a day, 14 days leg fixation, induction group about 33%) was “about 17%”. Moreover, in test [2] (370 mg/kg oral once a day, 14 days leg fixation, induction group about 40%), the “gastrocnemius weight decrease in proportion to body weight vs normal group” value is reported as “about 24%”. Moreover, in test [2] (370 mg/kg oral, 14 days), the “muscle atrophy protective ability (muscle weight), gastrocnemius” value was “about 16%” and the “muscle atrophy protective ability (muscle weight), quadriceps” value was “about 16%”.

Source of the values: US11622984B2, “Composition comprising aster sphathulifolius maxim extract for preventing, improving, or treating muscular diseases or for improving muscular functions” (NEWTREE CO., LTD., priority 2018, dated 2023).
